Experimental data from patent EP0393512A1, “New 1,3-dioxolane-2-yl derivatives of 2-picolylamine” (J. URIACH & CIA. S.A., priority 1989, dated 1990).
Read-outs that look alike come from different tables or passages of the source.

Legend:
[1] = test system: platelet aggregation induced by PAF; assay: Inhibition of platelet aggregation induced by PAF (rabbit platelet rich plasma, Born nephelometric technique); format: cell-based, New Zealand albino rabbits; settings: concentration needed to inhibit platelet aggregation by 50%, PAF (C₁₈) 16 nM final, read-out: IC₅₀
Protocol: Inhibition of platelet aggregation induced by PAF.
The blood is obtained by cardiac puncture of male New Zealand albino rabbits (between 2 and 2.5 Kg of weight) and coagulation is prevented by adding 1 part of 3.16% sodium citrate dihydrate in 9 parts of blood. The platelet rich plasma (PRP) is prepared by blood centrifugation at 250xg for 10 min. at 4°C and it is diluted with platelet poor plasma (PPP) by additional centrifugation at 3000xg for 10 min. The amount of platelets is adjusted to […]. The platelet aggregation induced by PAF (C₁₈; prepared in our laboratory) (16 nM, final) is determined by the Born nephelometric technique (J. Physiol., 1962, 162 67) using a aggregometer Chrono-log 500.
The activities of the inhibitors are expressed as IC₅₀, that is to say the concentration of the drug needed to inhibit the platelet aggregation by 50%.

[2] = test system: hypotension induced by PAF; assay: Inhibition of the hypotensive effect induced by PAF in normotense rats; format: in vivo, Sprage Dawley rats; settings: Rattus norvegicus, iv; anesthetized male rats; compound given through the femoral vein 3 min before PAF (0.5 mcg/Kg, i.v.); average arterial pressure; read-out: IC₅₀
Protocol: Inhibition of the hypotensive effect induced by PAF in normotense rats. Male Sprage Dawley rats, of 180-220 g of weight, anesthetized with sodium pentobarbital (50 mg/Kg, i.p. 1 mL/100 g) have been used. In order to measure the average arterial pressure, a polyethylene catheter is introduced into the carotid artery. The arterial pressure is recorded with the help of a transducer connected with a R611 Beckman polygraph. The tested compounds are administered through the femoral vein 3 min before the injection of PAF (0.5 mcg/Kg, i.v.).

| Compound | IC50 ([1]; Oryctolagus cuniculus) [µM] | ED50 [2] [mg/kg] | IC50 [1] [µM] |
| --- | --- | --- | --- |
| CCCCCCCCCCCCCCCCCC1COC(COC(=O)N(Cc2cccc[n+]2CC)C(C)=O)O1.[I-] (centres unmarked) [Compound 3, 2-[N-Acetyl-N-[((5-heptadecyl-1,3-dioxolan-2-yl)methoxy)carbonyl]aminomethyl]-1-ethylpyridinium iodide] | < 0.05 | 0.074 |  |
| CCCCCCCCCCCCCCCCOCC1COC(COC(=O)N(Cc2ccccn2)C(C)=O)O1.Cl (centres unmarked) [Compound 6, 2-[N-Acetyl-N-[((5-hexadecyloxymethyl-1,3-dioxolane-2-yl)methoxy)carbonyl]aminomethyl] pyridine hydrochloride] | 4 | > 5 |  |
| CCCCCCCCCCCCCCCCOCC1COC(COC(=O)N(Cc2cccc[n+]2C)C(C)=O)O1.[I-] (centres unmarked) [Compound 7, 2-[N-Acetyl-N-[((5-hexadecyloxymethyl-1,3-dioxolane-2-yl)methoxy)carbonyl]aminomethyl]-1-methylpyridinium iodide] | 1 | 0.32 |  |
| CCCCCCCCCCCCCCCCOCC1COC(COC(=O)N(Cc2cccc[n+]2CC)C(C)=O)O1.[I-] (centres unmarked) [Compound 8, 2-[N-Acetyl-N-[((5-hexadecyloxymethyl-1,3-dioxolane-2-yl)methoxy)carbonyl]aminomethyl]-1-ethylpyridinium iodide] | < 0.05 | < 0.05 |  |
| CCCCCCCCCCCCCCCCOCC1COC(COC(=O)N(Cc2cccc[n+]2CC)C(C)=O)O1.[Cl-] (centres unmarked) [Compound 9, 2-[N-Acetyl-N-[((5-hexadecyloxymethyl-1,3-dioxolane-2-yl)methoxy)carbonyl]aminomethyl]-1-ethylpyridinium chloride] |  | < 0.05 | < 0.05 |
| CCCCCCCCCCCCCCCCOCC1COC(COC(=O)N(Cc2cccc[n+]2CC)C(=O)OCC)O1.[I-] (centres unmarked) [Compound 11, 2-[N-Ethoxycarbonyl-N-[((5-hexadecyloxymethyl-1,3-dioxolane-2-yl)methoxy)carbonyl]aminomethyl]-1-ethylpyridinium iodide] | 0.14 | 0.095 |  |
| CCCCCCCCCCCCCCCCCCOCC1COC(COC(=O)N(Cc2cccc[n+]2CC)C(C)=O)O1.[I-] (centres unmarked) [Compound 14, 2-[N-Acetyl-N-[((5-octadecyloxymethyl-1,3-dioxolane-2-yl)methoxy)carbonyl]aminomethyl]-1-ethylpyridinium iodide] | 0.11 | < 0.05 |  |
| CCCCCCCCCCCCCCOCC1COC(COC(=O)N(Cc2cccc[n+]2CC)C(C)=O)O1.[I-] (centres unmarked) [Compound 17, 2-[N-Acetyl-N-[((5-tetradecyloxymethyl-1,3-dioxolane-2-yl)methoxy)carbonyl]aminomethyl]-1-ethylpyridinium iodide] | 0.15 | 0.2 |  |
| CCCCCCCCCCCCCCCNC(=O)OCC1COC(COC(=O)N(Cc2cccc[n+]2CC)C(C)=O)O1.[I-] (centres unmarked) [Compound 20, 2-[N-Acetyl-N-[((5-pentadecylcarbamoyloxymethyl-1,3-dioxolane-2-yl)methoxy)carbonyl]aminomethyl]-1-ethylpyridinium iodide] | < 0.05 | 0.093 |  |
| CCCCCCCCCCCCCCCCCNC(=O)OCC1COC(COC(=O)N(Cc2ccccn2)C(C)=O)O1 (centres unmarked) [Compound 22, 2-[N-Acetyl-N-[((5-heptadecylcarbamoyloxymethyl-1,3-dioxolane-2-yl)methoxy)carbonyl]aminomethyl] pyridine] | < 0.05 | < 0.05 |  |
